Residues, ends and D or L forms follow the SMILES beside them. *: point of attachment. Palmitoyl = CCCCCCCCCCCCCCCC(=O)*
Experiments:
Format in all cases: physicochemical
[1] = Storage stability of formulations of amorphous Compound I-1; conditions: powder from capsules; 6 month at 25° C./60% RH or 40° C./75% RH
Method: This enteric coated capsule formulation was tested for stability and dissolution. […] Thus, this formulation can be storage stable.
This capsule formulation was also tested for stability and dissolution. […] Thus, Formulation B is also storage stable.
This capsule formulation was also tested for stability and dissolution.
This tablet formulation was also tested for stability and dissolution.

[2] = Stabilities of amorphous Compound I-1 (ICH guideline, XRPD)
Method: Stabilities of amorphous Compound I-1 were also conducted according to ICH guideline.

[3] = Approximate solubility of Compound I-1 (amorphous) in different solvents (manual dilution, visual observation); conditions: ambient laboratory temperature
Method: In this Example, approximate solubility tests of Compound I-1 (amorphous) were conducted in the different solvents at ambient laboratory temperature. The solubility was also tested by manual dilution combined with visual observation. In particular, a known amount of Compound I-1 was weighed and added to a vial. A known amount of solvent was gradually added to the vial with constant stirring. The solvent addition was kept at a very slow rate to minimize any excess solvent beyond what is needed to fully dissolve the solids. In order to cross-check the solubility, a small amount of Compound I-1 was added to the vial to confirm that the solution became turbid.

[4] = Solubility of amorphous, Form A and Form E of Compound I-1 in water (shaken at 25° C., HPLC); conditions: for Final pH: mother liquor
Method: The solubility of amorphous, Form A or E of Compound I-1 in water was further studied. Specifically, about 250 mg Compound I-1 in amorphous, Forms A and E were each suspended in a 2 mL HPLC vial with 0.9 mL of water. Each suspension was then shaken at 25° C. under 1000 rpm. The suspensions were analyzed at 1 h and 24 h. In particular, at either the 1 h or 24 h time point, the slurries were centrifuged and analyzed by HPLC. The pH values of the mother liquors were measured, and the residues were characterized by XRPD.

Compound: CCCCCCCCCCCCCCCC(=O)N1CCC[C@H]1C(=O)N1CCC[C@H]1C(=O)NCC(=O)N[C@@H](Cc1ccc(O)cc1)C(=O)[O-].[Na+] [Compound I-1 (Amorphous), sodium palmitoyl-L-prolyl-L-prolylglycyl-L-tyrosinate] (Palmitoyl-PPGY-OH)
- crystalline conversion (X-ray diffractograms, FIG. 12) [1]: no crystalline conversion was observed
- form transformation (XRPD) ([2]; all tested conditions (40° C./75% RH with protection from moisture, 60° C., ambient) except high humidity): no form transformation
- form transformation (XRPD) ([2]; high humidity condition for 1 week): could be transferred into Form A
- solubility ([3]; 1,4-Dioxane): 33.3 to 50 mg/mL
- solubility ([3]; 1-butanol): 50 to 100 mg/mL
- solubility ([3]; 2-Methyl Tetrahydrofuran): > 100 mg/mL
- solubility ([3]; Acetone): < 1 mg/mL
- solubility ([3]; Acetone:H2O (1:2)): 50 to 100 mg/mL
- solubility ([3]; Acetonitrile): < 1 mg/mL
- solubility ([3]; Acetonitrile:H2O (1:1)): 50 to 100 mg/mL
- solubility ([3]; Cyclohexane): < 1 mg/mL
- solubility ([3]; DMF): 20 to 33.3 mg/mL
- solubility ([3]; DMSO): 50 to 100 mg/mL
- solubility ([3]; Ethanol): 50 to 100 mg/mL
- solubility ([3]; Ethanol:H2O (1:1)): 50 to 100 mg/mL
- solubility ([3]; Ethanol:H2O (3:1)): 50 to 100 mg/mL
- solubility ([3]; Ethyl acetate): < 1 mg/mL
- solubility ([3]; Heptane): < 1 mg/mL
- solubility ([3]; Isopropyl acetate): < 1 mg/mL
- solubility ([3]; Isopropyl alcohol): 50 to 100 mg/mL
- solubility ([3]; Methanol): > 100 mg/mL
- solubility ([3]; Methanol:H2O (1:1)): > 100 mg/mL
- solubility ([3]; Methanol:H2O (3:1)): > 100 mg/mL
- solubility ([3]; Methyl ethyl ketone): 3.3 to 5 mg/mL
- solubility ([3]; Methyl isobutyl ketone): 1.2 to 1.4 mg/mL
- solubility ([3]; Methyl t-butyl ether): < 1 mg/mL
- solubility ([3]; N-methyl pyrrolidone): 50 to 100 mg/mL
- solubility ([3]; Tetrahydrofuran): > 100 mg/mL
- solubility ([3]; Tetrahydrofuran:H2O (1:1)): 50 to 100 mg/mL
- solubility ([3]; Toluene): 50 to 100 mg/mL
- solubility ([3]; Water): > 100 mg/mL
- Final pH ([4]; water, 25° C., time point 1 hour): 9.05
- Final pH ([4]; water, 25° C., time point 24 hours): 9.03
- XRPD pattern (wet) ([4]; residue of the suspension in water, 25° C., time point 24 hours): Mostly D
- Solubility at 25° C. ([4]; water, time point 1 hour): 239.1 mg/mL
- solubility at 1 h ([4]; water, time point 1 hour): > 200 mg/mL
- Solubility at 25° C. ([4]; water, time point 24 hours): 180.1 mg/mL
- solubility at 24 h ([4]; water, time point 24 hours): ~180 mg/mL
